Experimental findings from patent US20030162825A1, “D-amino acid oxidase inhibitors for learning and memory” (SEPRACOR INC., priority 2001, published 2003) are described below.

Entries after “also recorded” stand apart in the source; their conditions may differ.

The subject of one assay is rats. As to the kind of experiment: Morris water maze test (learning and memory). It counts as in vivo, rat. The procedure: Training was conducted in a circular pool (160 cm in diameter) filled with water to a depth of 35 cm. The walls of the pool were blue, and the water was made opaque by the addition of approximately 20 ml of white, non-toxic water-based food dye. Water temperature was maintained at approximately 25° C.
During training, rats learn to swim to a submerged platform (approximately 2.5 cm below the surface) constructed of Nalgene with a roughened Plexiglas surface. The surface diameter was approximately 16 cm and its height was approximately 27.5 cm. Experiments were conducted in a darkened room. Lighting of the water-maze was arranged so that illumination of the pool was dim and equivalent in all quadrants. Both acquisition data and retention probe data were collected using Videomex Morris maze software and interface (Columbus Instruments, Columbus, Ohio). The apparatus monitored the animal's progress using a video camera connected to a monitor and a video analysis computer that was outside the view of the swimming animal. Latencies to escape to the platform, the animal's swimming route, and its time spent in the platform-containing quadrant were measured.
Morris maze acquisition training (learning) consisted of 18 trials presented in 6 blocks of 3 trials each. During all training and testing procedures, the experimenter was blind to the animal group membership. To orient the animals to the task, training began with placement of the animal's front paws onto the platform followed by 10 sec of the animal's standing on the platform. Immediately after the third placement, training commenced with the first block of 3 trials. The platform was placed in the center of the southwest quadrant for all training. On each trial, rats were placed into the pool randomly at one of 6 different angular directions. […] Latency to escape to the platform was measured for each trial. […]
[…] The amount of time spent in the quadrant previously occupied by the platform and number of crosses over the previous position of the platform were recorded for each animal. […]

The target of assay [1] is T1, Porcine kidney D-amino acid oxidase (Sus scrofa, UniProt P00371).
T1 construct: purchased Sigma Company A-5222; host or cells: porcine kidney
T1 sequence (P00371 whole entry): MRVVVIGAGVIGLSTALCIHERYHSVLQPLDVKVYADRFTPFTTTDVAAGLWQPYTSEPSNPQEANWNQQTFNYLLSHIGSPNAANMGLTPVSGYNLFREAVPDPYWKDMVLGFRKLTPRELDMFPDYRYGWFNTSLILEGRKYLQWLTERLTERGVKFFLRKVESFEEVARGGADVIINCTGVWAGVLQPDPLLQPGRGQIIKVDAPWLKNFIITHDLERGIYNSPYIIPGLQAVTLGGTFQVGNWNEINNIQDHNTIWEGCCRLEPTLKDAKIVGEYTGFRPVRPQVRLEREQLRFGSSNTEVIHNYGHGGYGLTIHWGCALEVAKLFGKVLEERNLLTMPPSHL
As to the kind of experiment: D-amino acid oxidase inhibition assay (Amplex Red Hydrogen Peroxide Assay Kit). In kind it is biochemical. The conditions noted are these: D-serine substrate, reaction time five minutes; for inhibition at 40 µg/mL: inhibitor at 40 μg/mL. On the procedure:
A working solution was prepared by mixing: sodium phosphate buffer (8.7 ml, 0.025M, pH 7.4), D-serine solution (1.0 ml, 100 mM in water), horseradish peroxidase (0.2 ml, 200 U/ml in buffer), and Amplex™ Red solution (0.1 ml, 1 mg dye in 200 μl in DMSO (50 μM in DMSO)). A working enzyme solution was prepared by diluting a D-amino oxidase stock solution (65 U/ml) one hundred fold. The working solution (100 μl) was transferred to wells of a Microfluor B microtiter plate and a solution of the inhibitor in DMF was added.
Control experiments were carried out using DMF in the absence of inhibitor.

Regarding `O=C(O)c1cc2ccccc2[nH]1` [I-2-C, indole-2-carboxylic acid], in the assay on rats (first experiment: 200 mg/kg ip four times, one hour before first, second, fourth and sixth training period, four days after training), the “retention (seconds swimming in the quadrant previously containing the escape platform)” value is recorded as “improved retention”. The retention in seconds entry with rats (second experiment: single injection 200 mg/kg, eight days later, 200 mg/kg) is on record as “improving effect on retention; also recorded: improved retention”. The retention entry with rats (third experiment: single injection 200 mg/kg, first probe trial) is “improved retention”.

For orientation: IC50 means the concentration needed to halve the response being measured. High values mean a need for much substance, low ones inhibition by little substance. In general, inhibition refers to the drop in the measured response relative to a control, in per cent. A lower inhibition goes with little suppression. In assay [1], `O=C(O)c1cc2ccccc2[nH]1` [compound 1] gave a half-inhibitory concentration (IC50) of 2 µM and an inhibition at 40 µg/mL of 93%. `O=C(O)c1cc2cc(O)ccc2[nH]1` [compound 2] gave an inhibition at 40 µg/mL in assay [1] of 90%. Same read-out and setting: with `O=C(O)c1ccc[nH]1` [compound 3] the figure was 87%; with `O=C(O)c1cc2cc(Cl)ccc2[nH]1` [compound 4], 86%; with `O=C(O)c1cc2ccccc2o1` [compound 5], 85%.

The molecule `Cn1c(C(=O)O)cc2ccccc21` [compound 6] displayed an inhibition at 40 µg/mL in assay [1] of 58%.

The molecule `COc1ccc2[nH]c(C(=O)O)cc2c1` [compound 7] had an inhibition at 40 µg/mL in assay [1] of 32%. In turn, `O=C(O)c1ccc([N+](=O)[O-])c2c1NC(c1ccccc1)C1CC=CC21` (stereo not shown) [compound 10] displayed a concentration for half-maximal inhibition (IC50) in assay [1] of 17 µM. Still for that read-out and setting: the figure for `O=C(O)c1ccc([N+](=O)[O-])c2c1NC(c1ccc([N+](=O)[O-])cc1)C1CC=CC21` (stereo not shown) [compound 11] is 29 µM.
